Patent US20140087007A1, “BOWEL CLEANSING PREPARATIONS” (Braintree Laboratories, Inc., priority 2012, published 2014)

System: colon (colonic purgation)
Test: Stool output of normal volunteers after one amount of laxative, bowel movements collected 24 hours
Type: in vivo, human
Conditions: 20 mg, 24 hours collection
Experimental: The sulfate salt solutions such as those described herein were investigated for their efficacy as colon debulking agents because bisacodyl has been associated with reports of abdominal cramping. Four different solutions were prepared with varying amounts of sodium, magnesium, and potassium sulfate salts and each containing a total sulfate amount of 125 mM.
These included bisacodyl (20 mg), a PEG and balanced electrolyte isotonic preparation (NuLYTELY®, (2 L or 4 L) or HalfLytely®+Bisacodyl Bowel Prep Kit, (2 L PEG and electrolytes and 10 mg bisacodyl). Bowel movements and urine were collected for 24 hours. The stool output of the subjects were compared and evaluated for movement of electrolytes between the solution and the subject.
The results measured were mean stool volume output and are shown below in Table 2 using non-sulfate laxatives and in Table 3 using sulfate laxatives.

For `CC(=O)Oc1ccc(C(c2ccc(OC(C)=O)cc2)c2ccccn2)cc1` [Bisacodyl, bisacodyl], the “% Solids (stool)” value was 50.4% and the “Output (mean stool volume output)” value was 757 g.
